Our source for the TGI and GI50 values is PubChem BioAssay (NCI).

Where “and” joins values, the source holds several entries; their conditions need not be identical. Equal entries are not always repeated.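 Dose response: 5 concentrations. Exposure: 48 h. Format: 96-well plates. Endpoint: linear interpolation; highest concentration if not reached. GI50 marks 50% less growth. At the TGI there is no net growth.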

Among the test systems are A498 renal; SK-OV-3 ovarian; CCRF-CEM leukemia; EKVX NSCLC; HL-60(TB) leukemia; A549 NSCLC; NCI-H460 lung; NCI-H522 lung; SK-MEL-5 melanoma; LXFL 529 NSCLC.
Assay in all cases: DTP human tumour cell line panel, 48 h

Usually TGI stands for the concentration giving total growth inhibition. As a reminder, the GI50 is the concentration at which growth is held to half of that of the control.

As for `COC(=O)C1=CC(O)CCC1c1ccc(OC)cc1` (stereo not drawn), the TGI in the test with A498 renal, in the test on SK-OV-3 ovarian, in the test on CCRF-CEM leukemia, in the test on EKVX NSCLC, with HL-60(TB) leukemia and in the test on A549 NSCLC was greater than 100 µM each time. The TGI with NCI-H460 lung, in the test on NCI-H522 lung, in the test with SK-MEL-5 melanoma and in the test with LXFL 529 NSCLC was greater than 100 µM in each case.

For `C=C(C)C1CC=C(C(=O)O)CC1` (stereo not drawn), the TGI is 4420 µM with A498 renal; greater than 5000 µM in the test with SK-OV-3 ovarian; 2770 µM in the test with CCRF-CEM leukemia; greater than 5000 µM in the test with EKVX NSCLC; 2630 µM in the test with HL-60(TB) leukemia; 3470 µM with A549 NSCLC. For the same molecule, the TGI was 3950 µM with NCI-H460 lung, 1830 µM in the test on NCI-H522 lung, 1450 µM in the test on SK-MEL-5 melanoma and greater than 5000 µM with LXFL 529 NSCLC.

In the case of `COc1ccc2cc(C(=O)c3ccccc3C(=O)O)ccc2c1`, the TGI in the test with A498 renal, with SK-OV-3 ovarian, in the test on CCRF-CEM leukemia, with EKVX NSCLC, in the test on HL-60(TB) leukemia and with A549 NSCLC was greater than 100 µM throughout. The TGI in the test on NCI-H460 lung, with NCI-H522 lung, in the test with SK-MEL-5 melanoma and with LXFL 529 NSCLC was greater than 100 µM in each case.

As for `C[C@]12CCC[C@H](OC=O)C1(O)C[C@H](C(=O)O)CC2` (stereo partly drawn), the TGI with A498 renal was greater than 100 µM; in the test with SK-OV-3 ovarian, greater than 100 µM; in the test with CCRF-CEM leukemia it was greater than 100 µM; in the test with EKVX NSCLC it was 40.2 µM; with HL-60(TB) leukemia, greater than 100 µM; in the test with A549 NSCLC it was greater than 100 µM. Further, the TGI in the test with NCI-H460 lung, in the test on NCI-H522 lung, in the test on SK-MEL-5 melanoma and with LXFL 529 NSCLC was greater than 100 µM throughout.

As to `N=c1nc(N)c2cc3c(N)nc(=N)c3cc12`, the TGI is greater than 90.6 µM in the test on A498 renal; 72.5 µM with SK-OV-3 ovarian; 26.8 µM in the test on CCRF-CEM leukemia; 75.3 µM in the test with EKVX NSCLC; 6.78 µM in the test with HL-60(TB) leukemia; greater than 100 µM in the test on A549 NSCLC. For the same molecule, the TGI in the test on NCI-H460 lung is greater than 100 µM; in the test with NCI-H522 lung it was 46.4 µM; in the test with SK-MEL-5 melanoma it was greater than 100 µM; in the test with LXFL 529 NSCLC, greater than 100 µM.

Consider `CCc1ccccc1NC(=O)/C(CC(=O)c1c(C)n([O-])c2ccccc2[n+]1=O)=N\NS(=O)(=O)c1ccc(C)cc1`, for which the TGI is greater than 100 µM with A498 renal; greater than 100 µM in the test on SK-OV-3 ovarian; 52.6 µM with CCRF-CEM leukemia; greater than 100 µM with EKVX NSCLC; 41.6 µM in the test on HL-60(TB) leukemia; greater than 100 µM with A549 NSCLC. The TGI is greater than 100 µM in the test with NCI-H460 lung, 47.1 µM with NCI-H522 lung and greater than 100 µM in the test on LXFL 529 NSCLC.

For the molecule `CCCCCCCC[N+](C)(C)Cc1ccc(C[N+](C)(C)CCCCCCCC)cc1`, the TGI was greater than 100 µM with A498 renal; greater than 100 µM with SK-OV-3 ovarian; greater than 100 µM in the test on CCRF-CEM leukemia; greater than 100 µM in the test on EKVX NSCLC; 97.6 µM with HL-60(TB) leukemia; greater than 100 µM in the test on A549 NSCLC. In addition, the TGI in the test on NCI-H460 lung, in the test with NCI-H522 lung, in the test on SK-MEL-5 melanoma and in the test on LXFL 529 NSCLC was greater than 100 µM each time.

Take `Cc1cc(N(CCC#N)CCC#N)ccc1/C=C1/CN(N2C(=O)/C(=C/c3ccc(N(CCC#N)CCC#N)cc3C)N=C2c2ccccc2)C(c2ccccc2)=N1`: the TGI with A498 renal, with CCRF-CEM leukemia, in the test on EKVX NSCLC, in the test on HL-60(TB) leukemia, with A549 NSCLC and with NCI-H460 lung was greater than 100 µM throughout. Further, the TGI in the test with NCI-H522 lung, in the test with SK-MEL-5 melanoma and with LXFL 529 NSCLC was greater than 100 µM throughout.

Regarding `CN1CCC23c4c5ccc(O)c4OC2C(=NN=C2CCC4(O)C6Cc7ccc(O)c8c7C4(CCN6C)C2O8)CCC3(O)C1C5` (stereo not drawn), the TGI with A498 renal, with SK-OV-3 ovarian, with CCRF-CEM leukemia, in the test with EKVX NSCLC, in the test with HL-60(TB) leukemia and in the test on A549 NSCLC was greater than 100 µM each time. Moreover, the TGI with NCI-H460 lung, in the test on NCI-H522 lung, with SK-MEL-5 melanoma and in the test with LXFL 529 NSCLC was greater than 100 µM in each case.

On to `CSc1ccc(-c2cn3ccsc3n2)c(O)c1`, for which the TGI with A498 renal is greater than 100 µM; with SK-OV-3 ovarian it was greater than 100 µM; in the test with CCRF-CEM leukemia, greater than 60.9 µM; with EKVX NSCLC, greater than 100 µM; with HL-60(TB) leukemia, greater than 63.1 µM; in the test with A549 NSCLC, greater than 100 µM. For the same molecule, the TGI with NCI-H460 lung was greater than 87.4 µM; with NCI-H522 lung, greater than 100 µM; in the test with SK-MEL-5 melanoma it was greater than 100 µM; in the test on LXFL 529 NSCLC it was greater than 82.2 µM.

With `CN1C(=O)n2c(nc3ccccc32)C(N=[N+]=[N-])(N=[N+]=[N-])C1=O` (stereo not drawn), the TGI with A498 renal, with SK-OV-3 ovarian, in the test on CCRF-CEM leukemia, with EKVX NSCLC, in the test with HL-60(TB) leukemia and with A549 NSCLC was greater than 100 µM in each case. Also, the TGI with NCI-H460 lung, in the test on NCI-H522 lung, with SK-MEL-5 melanoma and in the test on LXFL 529 NSCLC was greater than 100 µM in each case.

As to `C=C(C)C(=O)NC(N)=NC#N`, the GI50 in the test with A498 renal is 201 µM; in the test on EKVX NSCLC, 165 µM; in the test on NCI-H460 lung, 163 µM; with NCI-H522 lung, 2.26 µM; with SK-MEL-5 melanoma, 171 µM. The TGI in the test on A498 renal was > 46.4 µM and 345 µM; with SK-OV-3 ovarian, 308 µM; with CCRF-CEM leukemia it was 59.9 µM and 60.5 µM; in the test with EKVX NSCLC, > 90 µM and 392 µM; with HL-60(TB) leukemia it was 42.6 µM and 50.3 µM; with A549 NSCLC it was 307 µM. For the same molecule, the TGI in the test with NCI-H460 lung is 306 µM; in the test with NCI-H522 lung, 16.4 µM and 5.88 µM; in the test with SK-MEL-5 melanoma, 310 µM; in the test with LXFL 529 NSCLC, 191 µM.
